Assay results from PubChem BioAssay (NCI).
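Compound exposure: 48 hours, 5 concentrations, 96-well plates. GI50: concentration for 50% inhibition of growth. TGI is the concentration that stops growth completely.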

Tests used:
Experiment in all cases: growth of human tumour cells (NCI), 48 h
[1] = tested on: HOP-92 NSCLC
[2] = tested on: SF-295 CNS
[3] = tested on: NCI-H522 lung
[4] = tested on: UACC-257 melanoma
[5] = tested on: HCC-2998 colon
[6] = tested on: SW-620 colon
[7] = tested on: NCI-H226 lung
[8] = tested on: CCRF-CEM leukemia
[9] = tested on: COLO 205 colon
[10] = tested on: M14 melanoma

`CC(C)(C)C[C@H]1NC(C(=O)NCC[C@H](O)CO)[C@H](c2cccc(Cl)c2)[C@@]12C(=O)Nc1cc(Cl)c(F)cc12` (stereo not given in full) showed a GI50 [1] of 13.3 µM, a TGI [1] of 28.4 µM and a GI50 [2] of 13.4 µM. For the same compound, the TGI [2] was 28.1 µM, the GI50 [3] was 14.3 µM and the TGI [3] was 30 µM. For the same compound, the GI50 [4] was 1.75 µM, the TGI [4] was 15.9 µM and the GI50 [5] was 16.2 µM. For the same compound, the TGI [5] was 31.1 µM, the GI50 [6] was 16.6 µM and the TGI [6] was 34.1 µM. The GI50 [7] was 2.46 µM, the TGI [7] was 14.1 µM and the GI50 [8] was 17.7 µM. For the same compound, the TGI [8] was 45.9 µM, the GI50 [9] was 16.1 µM and the TGI [9] was 30.7 µM. It also gave a GI50 [10] of 16.6 µM and a TGI [10] of 33.7 µM.
`C[C@H](Nc1ncnc2nc[nH]c12)c1cc2cccc(Cl)c2c(=O)n1-c1ccccc1` showed a GI50 [1] of 1.38 µM, a TGI [1] of 69.7 µM and a GI50 [2] of 1.54 µM. The TGI [2] was > 100 µM, the GI50 [3] was 6.93 µM and the TGI [3] was > 100 µM. The GI50 [4] was 8.57 µM, the TGI [4] was > 100 µM and the GI50 [5] was 28.4 µM. For the same compound, the TGI [5] was > 100 µM, the GI50 [6] was 36.5 µM and the TGI [6] was > 100 µM. For the same compound, the GI50 [7] was > 77.4 µM, the TGI [7] was > 100 µM and the GI50 [8] was 3 µM. For the same compound, the TGI [8] was > 100 µM, the GI50 [9] was 19.7 µM and the TGI [9] was > 100 µM. For the same compound, the GI50 [10] was 21.1 µM and the TGI [10] was > 100 µM.
With `Cc1ccncc1.[O]=[Ge].[O]=[Ge].[O]=[Ge].[O]=[Ge].[O]=[Ge].[O]=[Ge][OH].[O]=[Ge][OH]` the GI50 [1] was > 100 µM, the TGI [1] was > 100 µM and the GI50 [2] was > 100 µM. For the same compound, the TGI [2] was > 100 µM, the GI50 [4] was > 100 µM and the TGI [4] was > 100 µM. The GI50 [5] was > 100 µM, the TGI [5] was > 100 µM and the GI50 [6] was > 100 µM. For the same compound, the TGI [6] was > 100 µM, the GI50 [7] was > 100 µM and the TGI [7] was > 100 µM. For the same compound, the GI50 [8] was > 100 µM, the TGI [8] was > 100 µM and the GI50 [10] was > 100 µM. The TGI [10] was > 100 µM.
Work on `C=CCc1c2c(c(OC)c3ccoc13)C(=O)/C(=C/c1ccccc1OC)O2` yielded a GI50 [1] of 2.07 µM, a TGI [1] of 6.2 µM and a GI50 [2] of 3.67 µM. For the same compound, the TGI [2] was > 100 µM, the GI50 [3] was 3.16 µM and the TGI [3] was 31.7 µM. For the same compound, the GI50 [4] was 6.41 µM, the TGI [4] was > 100 µM and the GI50 [5] was 2.85 µM. For the same compound, the TGI [5] was 7.85 µM, the GI50 [6] was 4.24 µM and the TGI [6] was > 100 µM. The GI50 [7] was 3.22 µM, the TGI [7] was 20.5 µM and the GI50 [8] was 3.44 µM. For the same compound, the TGI [8] was > 100 µM, the GI50 [9] was 7.64 µM and the TGI [9] was 69.5 µM. For the same compound, the GI50 [10] was 8.19 µM and the TGI [10] was > 100 µM.
Work on `COc1ccc2c(c1)C(O)(C(F)(F)F)c1cc(C(=O)C(F)(F)F)c3ccccc3c1N2` (stereo not given) yielded a TGI [1] of 29.6 µM, a TGI [2] of 26.5 µM and a TGI [3] of 20.6 µM. The TGI [4] was 26.4 µM, the TGI [5] was 24.3 µM and the TGI [6] was 26.8 µM. It also gave a TGI [7] of 28 µM, a TGI [8] of 29.2 µM and a TGI [9] of 19.5 µM. For the same compound, the TGI [10] was 18.1 µM.
For `CN(CCCN)CCCNc1nc2ccccc2c2[nH]c3ccccc3c12`, the GI50 [1] was 0.208 µM, the TGI [1] was 0.736 µM and the GI50 [2] was 0.224 µM. It also gave a TGI [2] of 0.738 µM, a GI50 [3] of 0.0613 µM and a TGI [3] of 0.215 µM. It also gave a GI50 [4] of 1.77 µM, a TGI [4] of 3.49 µM and a GI50 [5] of 0.113 µM. For the same compound, the TGI [5] was 0.271 µM, the GI50 [6] was 0.315 µM and the TGI [6] was 1.64 µM. For the same compound, the GI50 [7] was 0.297 µM, the TGI [7] was 0.997 µM and the GI50 [8] was 0.173 µM. The TGI [8] was 1.58 µM, the GI50 [9] was 0.178 µM and the TGI [9] was 0.509 µM. It also gave a GI50 [10] of 0.696 µM and a TGI [10] of 1.93 µM.
For `CC1=NCCc2c1[nH]c1cc(O)ccc21`, the TGI [1] was > 100 µM, the TGI [2] was > 100 µM and the TGI [4] was > 100 µM. The TGI [5] was > 100 µM, the TGI [6] was > 100 µM and the TGI [7] was > 100 µM. The TGI [8] was > 100 µM, the TGI [9] was > 100 µM and the TGI [10] was > 100 µM.
